Experimental data taken from US8993632B2, “Inhibitors of the 11-beta-hydroxysteroid dehydrogenase type 1 enzyme” (AbbVie Inc., priority 2005, dated 2015).

Tests used:
[1] = tested on: CD-1 mice; experiment: 24-hour inhibitory avoidance task in mice after drug-in-diet dosing; assay type: in vivo; conditions: both doses (10 and 100 mg/kg/day in Western diet), vs vehicle control mice
Experimental: The 24-hour inhibitory avoidance task in mice is a measure of one-trial learning and memory consolidation in response to a discrete aversive event (foot-shock). Mice are first placed in an illuminated compartment of a two-compartment apparatus. Mice will naturally step through into an adjoining dark compartment, which they prefer. When the mice enter the dark they receive a mild foot-shock. To assess memory, mice are tested 24 hours later and the length of time the animal refrains from entering the dark compartment is recorded (higher latencies indicate improved memory for the aversive event).
Male CD-1 mice were obtained from Charles River, Wilmington, Mass. Mice were group-housed 10 per cage. The body weight upon arrival was 20-25 g. Food and water were available ad libitum except during experiments. […]
On the first day of testing (17 days after drug-in-diet was presented) mice were removed from the colony room in their home cage, brought to the testing room, and left undisturbed for 2 hours prior to testing initiation. […] The latency to enter the dark chamber was recorded and was the dependent variable measured for assessing memory retention (latency is defined as entry of the whole mouse; all 4 paws on the grids in the dark side, plus the tail in the chamber for 5 sec; 180 sec is maximum latency). Data were analyzed using Mann Whitney U comparisons. […]

[2] = tested on: HSD-1; experiment: Monkey ex vivo HSD1 activity (cortisone to cortisol in harvested tissue); design: species or system Cynomolgus Monkeys; conditions: for HSD-1 ex vivo activity, Mean % Veh Control: single 10 mg/kg oral dose
Experimental: Harvested tissues (approximately 150 mg) were minced into small, 2 mm pieces in the presence of 5× volume of incubation buffer. Cortisone at final concentrations of 0, 3, 10 or 30 μM was added to each well. Cell culture plates with tissues were incubated at 37° C. for three hours. Two-hundred μL of tissue culture supernatant was then removed and spun at 1000 rpm in an Eppindorf tube, and then 100 μL of resulting supernatant was aliquotted into two tubes for LCMS analysis of cortisol.

[3] = tested on: phosphorylated CREB; experiment: Phosphorylated CREB immunohistochemistry in brain after food-in-diet dosing; assay type: in vivo, mice; conditions: 18 days food-in-diet (10 and 100 mg/kg/day)
Experimental: In vivo signaling studies were conducted to examine the biochemical pathways that may be mechanistically involved in the cognitive efficacy associated with Compound KK. An important signaling process that serves as a biochemical correlate of synaptic plasticity underlying learning and memory is the phosphorylation of CREB (c-AMP-response element binding protein), a transcription factor critical to long-term memory. To investigate the effects of Compound KK on CREB phosphorylation, CD1 mice treated and tested (data presented in FIG. 1) were given a 24-hour rest after testing before immunohistochemical procedures commenced.
Male CD-1 mice were obtained from Charles River, Wilmington, Mass. Mice were group-housed 10 per cage. The body weight upon arrival was 20-25 g. […]
Compound KK was administered via a drug-in-diet administration (100 mg/kg/day in Western diet) or (10 mg/kg/day in Western diet). […] Immuno-reactivity (IR) was quantified using an image analysis system (Leica, Quantimet 500) that determined number and/or area of peroxidase substrate-positive stained neurons from digitized photomicrographs according to a pixel gray level empirically determined prior to analysis. Overall statistical significance was determined using a one-way ANOVA, with Dunnett's post hoc analyses used to determine significance (p<0.05 was considered significant).

[4] = tested on: Fisher rats; experiment: Rat EEG REM sleep parameters; assay type: in vivo; conditions: 30 mg/kg, 3 times at 24, 26, and 0.1 hours before measurement; 8 h EEG
Experimental: EEG of Fisher rats (n=8/group) with chronically implanted supracortical EEG-electrodes were analyzed for an 8 h period. Intraindividual drug-induced changes of power spectra were analyzed. For REM sleep the number of REM episodes, latency to first REM, and total REM time was analyzed.

[5] = tested on: ACh release; experiment: Microdialysis, cortical/hippocampal acetylcholine levels; assay type: in vivo, Sprague Dawley rats; conditions: single administration 30 mg/kg, p.o.
Experimental: (§1) Microdialysis studies (resting or challenging conditions) in freely moving, male Sprague Dawley rats (Janvier, 295-315 g, n=5-8/treatment group) were performed using stereotactically instrumented microdialysis probes (CMA/12-14-2): mPFC, hippocampus. Aliquots of the same microdialysate fractions (6 before, and 9-12 after compound administration) were analyzed either for acetylcholine or for serotonin by HPLC and electrochemical detection.

[6] = tested on: serotonin (5-HT) levels; experiment: Microdialysis, cortical/hippocampal serotonin levels; assay type: in vivo, Sprague Dawley rats; conditions: single administration 30 mg/kg, p.o.
Experimental: as §1
This is a feature shared by marketed anti-depressive drugs and might indicate the potential use for 11β-HSD1 inhibitors as antidepressants/anxiolytic drugs. These findings remain to be confirmed by (i) investigating 11β-HSD1 inhibitors from different chemotype(s) in selected microdialysis studies and/or (ii) in animal models of depression/anxiety.

[7] = tested on: Sprague Dawley rats; experiment: Short-term social recognition memory in the rat; assay type: in vivo; conditions: 30 mg/kg po at 24, 18 and 1 hour before first juvenile exposure, vs vehicle control rats
Experimental: Social memory and social cognition are impaired in disorders such as Alzheimer's disease and schizophrenia. One of the more commonly used preclinical models of social recognition memory is short-term social recognition in the rat, a model of short-term memory based on the recognition of a juvenile rat by an adult rat. […] The juvenile rat is then removed and reintroduced 120 min later, and interactive behavior of the adult rat is again monitored. If memory has been lost over the interval between trials 1 and 2, the extent of interaction is equal (expressed as a ratio of investigation time of T1/T2) and the ratio will be close to 1. However, if the adult remembers the juvenile, the investigation ratio declines. To test for non-specific effects, a novel juvenile is introduced at 120 minutes instead of the familiar juvenile. […]
Rats were pre-dosed po at 24, 18 and 1 hour before first juvenile rat exposure with vehicle, or Compound MM (30 mg/kg). […] The time the adult spent exploring (sniffing, grooming, close following) the juvenile during this test session was recorded, and defined as the first investigation duration. […] Data were analyzed using a one-way analysis of variance. If there was a significant effect, subsequent post hoc significance was determined using Dunnett's multiple comparison testing (p<0.05 was regarded as significant).

| Structure (SMILES) | memory retention (Mean Transfer Latency), FIG. 1 [1] | ex vivo inhibition of HSD1 in monkey brain, fat and liver ([2]; 2.5 and 16 hours following a single oral 10 mg/kg dose) | HSD-1 ex vivo activity, Mean % Veh Control ([2]; Cerebral Cortex, 16 hours) | HSD-1 ex vivo activity, Mean % Veh Control ([2]; Hippocampus, 16 hours) | HSD-1 ex vivo activity, Mean % Veh Control ([2]; Liver, 2.5 hours) | HSD-1 ex vivo activity, Mean % Veh Control ([2]; Liver, 16 hours) | HSD-1 ex vivo activity, Mean % Veh Control ([2]; Mesenteric Fat, 2.5 hours) | HSD-1 ex vivo activity, Mean % Veh Control ([2]; Mesenteric Fat, 16 hours) | phosphorylated CREB, FIG. 2 [3] | increase of latency to first REM [4] | reduction of REM time [4] | reduction of number of REM sleep episodes [4] | reduction of total sleep time [4] | ACh release under resting conditions ([5]; acute) | ACh release under challenging conditions (novel cage), cortex and hippocampus [5] | serotonin (5-HT) levels in the medial prefrontal cortex and in the hippocampus [6] | short-term memory retention, FIG. 4 [7] |
| --- | --- | --- | --- | --- | --- | --- | --- | --- | --- | --- | --- | --- | --- | --- | --- | --- | --- |
| CC(C)(Oc1ccc(F)cc1Cl)C(=O)NC1C2CC3CC1CC(S(C)(=O)=O)(C3)C2 (centres unmarked) [Compound KK, 2-(2-Chloro-4-fluorophenoxy)-2-methyl-N-[(E)-5-(methylsulfonyl)-2-adamantyl]propanamide] | significant improvement in memory retention | potent ex vivo inhibition | 30% | 42% | 38% | 9% | 90% | 50% | increase in phosphorylated CREB | – | – | – | – | – | – | – | – |
| O=C(CN1CCN(c2ccc(C(F)(F)F)cn2)CC1)NC1C2CC3CC1CC(O)(C3)C2 (centres unmarked) [Compound MM, N-[(E)-5-Hydroxy-2-adamantyl]-2-{-4-[5-(trifluoromethyl)pyridin-2-yl]piperazin-1-yl}acetamide] | – | – | – | – | – | – | – | – | – | 62% | 23% | 16% | 10% | did not change ACh release | did not induce any further stimulation of ACh release | long-lasting increase | significant improvement in short-term memory retention |
